Results as given in patent US9155743B2, “Bicyclic heterocycle compounds and their uses in therapy” (priority 2011, dated 2015).
Where a name gives a salt, the structure may show the parent alone. Read-outs that look alike come from different tables or passages of the source.

Columns and labels:
[1] = biological target: XIAP BIR3 domain (Homo sapiens (Human), UniProt P98170); assay: XIAP in vitro competitive displacement binding assay (fluorescence polarization); settings: for IC50: given as ranges, a range also covers PI >= approx 50% at <= the upper concentration, read-out: IC50 or PI Xiap
[2] = biological target: cIAP-1 BIR3 domain (Homo sapiens (Human), UniProt Q13490); assay: cIAP-1 in vitro competitive displacement binding assay (fluorescence polarization); settings: for IC50: given as ranges, read-out: IC50 or PI cIAP1
[3] = tested on: XIAP or cIAP1; assay: Assays using XIAP and cIAP1 (result stated for XIAP or cIAP1); format: binding, human
[4] = tested on: EVSA-T (human breast carcinoma); assay: Anti-proliferative activity, Alamar Blue assay, EVSA-T; format: cell-based; settings: for inhibition at 10 µM: read-out: EC50 or PI EVSA-T prolif (percentage inhibition)
[5] = read-out: IC50 or at least 50% inhibition of the activity at a concentration of 1 μM, against XIAP or cIAP1
[6] = read-out: IC50 or at least 50% inhibition of the activity at a concentration of 10 μM, against XIAP or cIAP1
[7] = EVSA-T, 72 hours compound incubation, read-out: EC50 or PI EVSA-T prolif
[8] = read-out: EC50 or greater than 50% at 10 μM, EVSA-T cell line
[9] = AbuRPFK(5&6FAM)-amide probe (Probe B)
[10] = AVPIK(5&6FAM)-amide probe (Probe A)
[11] = EVSA-T, 72 h, read-out: EC50 or PI EVSA-T prolif
[12] = EVSA-T, read-out: EC50 or greater than 50% at 10 μM

| Compound | IC50 [3, 5] | IC50 [3, 6] | EC50 [4, 7] | EC50 [4, 8] | IC50 [1] | IC50 [2, 9] | other results |
| --- | --- | --- | --- | --- | --- | --- | --- |
| CNC(C)C(=O)Nc1ccc2[nH]c(=O)n(Cc3ccc(Cl)cc3)c2n1 (stereo not drawn) [Example 1, N-[3-(4-Chloro-benzyl)-2-oxo-2,3-dihydro-1H-imidazo[4,5-b]pyridin-5-yl]-2-methylamino-propionamide hydrochloride] |  |  |  |  |  |  | inhibition at 100 µM ([1]; read-out: IC50 or PI Xiap (percentage inhibition)): 28%; inhibition at 30 µM ([2]; read-out: IC50 or PI cIAP1 (percentage inhibition)): 10% |
| CN[C@@H](C)C(=O)Nc1ccc2c(n1)O[C@@H](Cc1ccccc1)C(=O)N2 [Example 4, (S)—N—((S)-3-Benzyl-2-oxo-2,3-dihydro-1H-pyrido[2,3-b][1,4]oxazin-6-yl)-2-methylamino-propionamide hydrochloride] | < 1000 nM | < 10000 nM |  |  | 1000 to 10000 nM |  | inhibition at 10 µM ([4]; EVSA-T): -13%; IC50 [2, 10]: 10 to 1000 nM |
| CCC1(CC)Oc2nc(NC(=O)[C@H](C)NC)ccc2N(c2ccc(Cl)cc2)C1=O [Example 5, (S)—N-[1-(4-Chloro-phenyl)-3,3-diethyl-2-oxo-2,3-dihydro-1H-pyrido[2,3-b][1,4]oxazin-6-yl]-2-methylamino-propionamide hydrochloride] |  |  |  |  | 10 to 1000 nM |  | EC50 [4, 11]: 89 nM; EC50 [4, 12]: < 10000 nM |
| CN[C@@H](C)C(=O)Nc1ccc2c(n1)OC1(CCCCC1)C(=O)N2c1ccc(Cl)cc1 [Example 7, (2S)-N-[4′-(4-Chlorophenyl)-3′-oxo-3′,4′-dihydrospiro[cyclohexane-1,2′-pyrido[2,3-b][1,4]oxazine]-7′-yl]-2-(methylamino)propanamide hydrochloride] | < 1000 nM | < 10000 nM | 440 nM | < 10000 nM | 10 to 1000 nM | 10 to 1000 nM |  |
| CN[C@@H](C)C(=O)Nc1ccc2c(n1)OC(C)(CCC(C)C)C(=O)N2c1ccccc1 (stereo partly drawn) [Example 14, (S)-2-Methylamino-N-[3-methyl-3-(3-methyl-butyl)-2-oxo-1-phenyl-2,3-dihydro-1H-pyrido[2,3-b][1,4]oxazin-6-yl]-propionamide hydrochloride] |  |  |  |  | 10 to 1000 nM | 10 to 1000 nM | EC50 [4, 11]: 240 nM; EC50 [4, 12]: < 10000 nM |
| CN[C@@H](C)C(=O)Nc1ccc2c(n1)NCC(=O)N2 [Example 16, (S)-2-Methylamino-N-(2-oxo-1,2,3,4-tetrahydro-pyrido[2,3-b]pyrazin-6-yl)-propionamide hydrochloride] |  |  |  |  | 10000 to 100000 nM |  | IC50 [2, 10]: 10000 to 100000 nM |
| CN[C@@H](C)C(=O)Nc1ccc2c(n1)CNC(=O)N2 [Example 44, (S)-2-Methylamino-N-(2-oxo-1,2,3,4-tetrahydro-pyrido[3,2-d]pyrimidin-6-yl)-propionamide hydrochloride] |  |  |  |  | 100000 to 300000 nM |  | IC50 [2, 10]: 10000 to 100000 nM |
| CCC1(CC)Oc2nc(NC(=O)[C@H](C)N)ccc2N(c2ccc(Cl)cc2)C1=O [Example 45, (S)-2-Amino-N-[1-(4-chloro-phenyl)-3,3-diethyl-2-oxo-2,3-dihydro-1H-pyrido[2,3-b][1,4]oxazin-6-yl]-propionamide hydrochloride] |  |  |  |  | 10 to 1000 nM |  | IC50 ([3]; read-out: IC50 or at least 50% inhibition of the activity at a concentration of 1 μM): < 1000 nM; IC50 ([3]; read-out: IC50 or at least 50% inhibition of the activity at a concentration of 10 μM): < 10000 nM; EC50 [4, 11]: 2900 nM; EC50 [4, 12]: < 10000 nM |
| [2H]C([2H])([2H])[C@]([2H])(N)C(=O)Nc1ccc2c(n1)OC(CC)(CC)C(=O)N2c1ccc(Cl)cc1 [Example 46, (S)-2-Amino-N-[1-(4-chloro-phenyl)-3,3-diethyl-2-oxo-2,3-dihydro-1H-pyrido[2,3-b][1,4]oxazin-6-yl]-propionamide (2,3,3,3-d4) hydrochloride] |  |  | 7400 nM | < 10000 nM | 10 to 1000 nM |  |  |

More lines, main results first:

| IC50 [3, 5] | IC50 [3, 6] | EC50 [4, 7] | EC50 [4, 8] | IC50 [1] | IC50 [2, 9] | Compound | other results |
| --- | --- | --- | --- | --- | --- | --- | --- |
| < 1000 nM | < 10000 nM | 280 nM | < 10000 nM | 10 to 1000 nM | 10 to 1000 nM | CN[C@@H](C)C(=O)Nc1ccc2c(n1)O[C@@](C)(c1ccccc1)C(=O)N2c1ccc(Cl)cc1 [Example 3, (S)—N—[(S)-1-(4-Chloro-phenyl)-3-methyl-2-oxo-3-phenyl-2,3-dihydro-1H-pyrido[2,3-b][1,4]oxazin-6-yl]-2-methylamino-propionamide hydrochloride] |  |
| < 1000 nM | < 10000 nM | 120 nM | < 10000 nM | 10 to 1000 nM | 10 to 1000 nM | CN[C@@H](C)C(=O)Nc1ccc2c(n1)OC(C)(C)C(=O)N2c1ccc(Cl)cc1 [Example 6, (S)-N-[1-(4-Chloro-phenyl)-3,3-dimethyl-2-oxo-2,3-dihydro-1H-pyrido[2,3-b][1,4]oxazin-6-yl]-2-methylamino-propionamide hydrochloride] |  |
| < 1000 nM | < 10000 nM | 190 nM | < 10000 nM | 10 to 1000 nM | 10 to 1000 nM | CN[C@@H](C)C(=O)Nc1ccc2c(n1)OC1(CCCC1)C(=O)N2c1ccc(Cl)cc1 [Example 8, (2S)-N-[4′-(4-Chlorophenyl)-3′-oxo-3′,4′-dihydrospiro[cyclopentane-1,2′-pyrido[2,3-b][1,4]oxazine]-7′-yl]-2-(methylamino)propanamide hydrochloride] |  |
| < 1000 nM | < 10000 nM | 120 nM | < 10000 nM | 10 to 1000 nM | 10 to 1000 nM | CN[C@@H](C)C(=O)Nc1ccc2c(n1)OC1(Cc3ccccc3C1)C(=O)N2c1ccc(Cl)cc1 [Example 9, (2S)-N-[4′-(4-Chlorophenyl)-3′-oxo-1,3,3′,4′-tetrahydrospiro[indene-2,2′-pyrido[2,3-b][1,4]oxazine]-7′-yl]-2-(methylamino)propanamide hydrochloride] |  |
| < 1000 nM | < 10000 nM | 170 nM | < 10000 nM | 10 to 1000 nM | 10 to 1000 nM | CN[C@@H](C)C(=O)Nc1ccc2c(n1)OC(C)(C1CCCC1)C(=O)N2c1cccc(Cl)c1 (stereo partly drawn) [Example 13, (S)-N-[1-(3-Chloro-phenyl)-3-cyclopentyl-3-methyl-2-oxo-2,3-dihydro-1H-pyrido[2,3-b][1,4]oxazin-6-yl]-2-methylamino-propionamide hydrochloride] |  |
| < 1000 nM | < 10000 nM | 360 nM | < 10000 nM | 10 to 1000 nM | 10 to 1000 nM | CN[C@@H](C)C(=O)Nc1ccc2c(n1)CN(c1cccc(Cl)c1)C(=O)N2c1cccc(Cl)c1 [Example 24, (S)—N-[1,3-Bis-(3-chloro-phenyl)-2-oxo-1,2,3,4-tetrahydro-pyrido[3,2-d]pyrimidin-6-yl]-2-methylamino-propionamide hydrochloride] |  |
| < 1000 nM | < 10000 nM | 2300 nM | < 10000 nM | 10 to 1000 nM | 10 to 1000 nM | CN[C@@H](C)C(=O)Nc1ccc2c(n1)CN(c1cc(Cl)cc(Cl)c1)C(=O)N2c1cc(Cl)cc(Cl)c1 [Example 25, (S)—N-[1,3-Bis-(3,5-dichloro-phenyl)-2-oxo-1,2,3,4-tetrahydro-pyrido[3,2-d]pyrimidin-6-yl]-2-methylamino-propionamide hydrochloride] |  |
| < 1000 nM | < 10000 nM | 650 nM | < 10000 nM | 10 to 1000 nM | 10 to 1000 nM | CN[C@@H](C)C(=O)Nc1ccc2c(n1)CN(C1CCC(C)(C)CC1)C(=O)N2c1cccc(Cl)c1 [Example 35, (S)-N-[1-(3-Chloro-phenyl)-3-(4,4-dimethyl-cyclohexyl)-2-oxo-1,2,3,4-tetrahydro-pyrido[3,2-d]pyrimidin-6-yl]-2-methylamino-propionamide hydrochloride] |  |
| < 1000 nM | < 10000 nM | 880 nM | < 10000 nM | 10 to 1000 nM | 10 to 1000 nM | CN[C@@H](C)C(=O)Nc1ccc2c(n1)CN(C(C)C(C)C)C(=O)N2c1cccc(Cl)c1 (stereo partly drawn) [Example 36, (S)—N-[1-(3-Chloro-phenyl)-3-(1,2-dimethyl-propyl)-2-oxo-1,2,3,4-tetrahydro-pyrido[3,2-d]pyrimidin-6-yl]-2-methylamino-propionamide] |  |
| < 1000 nM | < 10000 nM | 620 nM | < 10000 nM | 10 to 1000 nM | 10 to 1000 nM | CN[C@@H](C)C(=O)Nc1ccc2c(n1)CN(C(C)C1CCC1)C(=O)N2c1cccc(Cl)c1 (stereo partly drawn) [Example 37, (S)-N-[1-(3-Chloro-phenyl)-3-(1-cyclobutyl-ethyl)-2-oxo-1,2,3,4-tetrahydro-pyrido[3,2-d]pyrimidin-6-yl]-2-methylamino-propionamide hydrochloride] |  |
| < 1000 nM | < 10000 nM |  | < 10000 nM | 1000 to 10000 nM | 10 to 1000 nM | CN[C@@H](C)C(=O)Nc1ccc2c(n1)CN(C1CCN(C(C)=O)CC1)C(=O)N2c1cccc(Cl)c1 [Example 38, (S)—N-[3-(1-Acetyl-piperidin-4-yl)-1-(3-chloro-phenyl)-2-oxo-1,2,3,4-tetrahydro-pyrido[3,2-d]pyrimidin-6-yl]-2-methylamino-propionamide] | inhibition at 10 µM ([4]; EVSA-T): 75% |
| < 1000 nM | < 10000 nM |  |  | 10 to 1000 nM | 10 to 1000 nM | CN[C@@H](C)C(=O)Nc1ccc2c(n1)CN(CC1CCCC1)C(=O)N2c1cccc(Cl)c1 [Example 42, (S)—N-[1-(3-Chloro-phenyl)-3-cyclopentylmethyl-2-oxo-1,2,3,4-tetrahydro-pyrido[3,2-d]pyrimidin-6-yl]-2-methylamino-propionamide hydrochloride] |  |
